The values that follow come from PMC7889660, “Complex precursor structures of cytolytic cupiennins identified in spider venom gland transcriptomes” (Scientific Reports, 2021).

Read-outs that look alike come from different tables or passages of the source. Ends that are not written are not given here.

The subject of assay [1] is Drosophila melanogaster. The conditions noted are these: Drosophila flies, 0.05 µl injected, 50% of flies die after 24 h; cited from earlier work. Here is the method:
Table 3 Insecticidal activities of selected cupiennins, CsTx-16 variants, neurotoxins CsTx-1, CsTx-9, and CsTx-13, and cyto-insectotoxin CIT1a. Different concentrations of peptides were dissolved in 0.1 M ammonium acetate, pH 6.1, and 0.05 µl was injected into Drosophila flies. The lethal dose (LD50, pmol/mg fly), where 50% of the flies die after 24 h, was calculated with PRISM Vers. 6.07. * Data | column: LD50 / (pmol/mg fly)

The test system of assay [2] is Drosophila melanogaster. The assay is described as follows: Insecticidal bioassay with Drosophila flies, lethal dose (LD50) 24 h after injection. The class given is in vivo. The note with it: for LD50: synthetic C-terminally amidated peptide in 0.1 M ammonium acetate pH 6.1, 0.05 µl injected intrathoracically into flight muscles of female flies (1- to 7-days old), 50% of flies die after 24 h, minimum five doses, each n = 20, PRISM Vers. 6.07. On the procedure: The insecticidal activity of different cupiennins was investigated in a bioassay with Drosophila melanogaster and the lethal dose, where 50% of the insects die of intoxication after 24 h of injection, calculated. […] The shorter LPs such as Cu 3a, d, and Cu 4a, were with 12.4–38.5 pmol/mg fly less toxic.
Cupiennins 3a, 3b, 4a, 6a, 6b, 6d, 7b, 8, and the two-chain CsTx-16a1b1, and CsTx-16c1d1 were synthesized (all C-terminally amidated) by GeneCust, (Dulange, Luxembourg). Bioassays using Drosophila flies were performed as described elsewhere. Briefly, all peptides were dissolved in 0.1 M ammonium acetate, pH 6.1 and 0.05 µl injected intrathoracically into the flight muscles of female flies (1- to 7-days old). For each peptide, in minimum five different peptide doses were injection into the flies (each n = 20) and also a negative control with only buffer was injected (n = 10). Calculations of the lethal dose (LD50) were done with GraphPad PRISM Vers. 6.07 (GraphPad Software, San Diego, CA, USA).

For the substance “Cu 1b: cytolytic linear cationic peptide, Cu 1 family, transcript C1 (GFGSLFKFLAKKVAKTVAKQAAKQGAKYIANKQMEG-NH2)”, the LD50 with Drosophila melanogaster [1] is given as 4.7 pmol/mg fly. As for “Cu 3a: Cu 3 family linear peptide, synthesized by GeneCust (GFGSLFKFLGKKLLKTVAKQAAKKQMEG-NH2)”, the LD50 in the assay on Drosophila melanogaster [2] was found to be 18.7 pmol/mg fly.

Take “Cu 6d: Cu 6 family linear peptide, synthesized by GeneCust (FINTIKLLIEKYREWKNKQSSG-NH2)”: the LD50 in the assay on Drosophila melanogaster [2] is 23.2 pmol/mg fly. Turning to “Cu 8: Cu 8 family linear peptide of 20 residues, transcript B, synthesized by GeneCust (IWRMPKKVLKLLAAFRGKEG-NH2)”, the “Toxicity ranking among tested cupiennins” value with Drosophila melanogaster [2] (Drosophila, LD50 after 24 h) is given as “lowest toxicity”. Besides, in the assay with Drosophila melanogaster [2], the LD50 came to 159.7 pmol/mg fly.
